# In patent US7732633B2, “Arylsulfinate salts in photoinitiator systems for polymerization reactions” (3M Innovative Properties Company, priority 2003, dated 2010):
# Columns and labels:
# [1] = in N,N-dimethylformamide, 0.1 molar TBA PF6, versus Ag/0.01M AgNO3 reference electrode, peak current, first scan, 100 mV/sec
# Experimental: The oxidation potential can be determined using cyclic voltammetry. As described herein, the oxidation potential is measured by dissolving the compound of interest in a non-aqueous solvent (i.e., N,N-dimethylformamide) containing a supporting electrolyte (i.e., 0.1 moles/liter tetrabutylammonium hexafluorophosphate). The resulting solution is purged with an inert gas such as argon. A three-electrode configuration is used that includes a working electrode (i.e., a glassy carbon electrode), a reference electrode (i.e., a silver wire in a 0.01 moles/liter of silver nitrate dissolved in acetonitrile), and a counter electrode (i.e., a platinum wire). The oxidation or reduction potential is the voltage corresponding to the maximum current for the oxidation reaction.
# The scan rates were 100 mV/sec.
# The electrochemical measurements were made using a three-electrode configuration: a reference electrode, a working electrode, and a counter electrode. The reference electrode was a fritted electrode (obtained from Sargent Welch, Buffalo Grove, Ill.) that was filled with 0.01M AgNO3 in acetonitrile and fitted with a silver wire 1 mm in diameter by approximately 19 cm in length. The counter electrode was a platinum wire 1.0 mm in diameter and approximately 16 cm long (overall length) formed into a coil having a coil diameter of approximately 10 mm and a coil length of about 7.5 cm. The working electrode was a glassy carbon electrode, approximately 3.5 mm in diameter (obtained from BAS, Inc., West Lafayette, Ind.). The glassy carbon electrode was polished using first a 3.0 micron aluminum oxide powder/deionized water slurry, then a 0.3 micron alpha alumina powder/deionized water slurry. The polishing powders were obtained from Buehler LTD, Evanston, Ill.
# The cell was a 50 mL four neck round bottom flask. Each electrode was sealed in the flask using the appropriately sized rubber septum. The fourth inlet was used to introduce an argon purge to remove oxygen and keep atmospheric moisture out of the cell.
# The supporting electrolyte was tetrabutylammonium hexafluorophosphate (TBA PF6) (obtained from Southwestern Analytical Chemicals, Inc., Austin, Tex.). The TBA PF6 was dried overnight in a vacuum oven at 80-90° C. before each experiment. The solvent was N,N-dimethylformamide (DMF), and it was used as received without further purification. The solvent was transferred to the electrochemical cell via syringe under an argon atmosphere to minimize atmospheric moisture uptake.
# Electrochemical measurements were made by first preparing a 0.1 molar solution of TBA PF6 in DMF. […] The potential was determined at the peak current for the oxidation or reduction reaction on the first scan.
# [2] = time to oxidize 50 weight percent of the compound at room temperature; solutions in acetonitrile-d3; pseudo-first order kinetics
# Experimental: The oxidative stability of the exemplary substituted arylsulfinates was determined by proton nuclear magnetic resonance spectroscopy. Spectra of solutions of the compounds in acetonitrile-d3 were obtained at regular intervals. The resonances of the alkyl groups in the cations were used as an internal standard to assess the oxidation of the anion.
Substance,Eox [1] [V],t1/2 [2] [days]
tetrabutylammonium 4-chlorobenzenesulfinate [Example 1],0.09,
tetrabutylammonium 4-cyanobenzenesulfinate [Example 4],0.15,>300
tetrabutylammonium 4-ethoxycarbonylbenzenesulfinate [Example 2],0.11,
tetrabutylammonium 4-trifluoromethylbenzenesulfinate [Example 3],0.18,
